Reference: ChEMBL document CHEMBL1201862, “PubChem BioAssay data set” (2004)
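Five compound concentrations were applied to cells in 96-well plates for 48 hours; endpoints were derived by simple linear interpolation of the resulting dose-response curve. At the GI50, growth is halved.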 Activity calls are given as the source filed them. Rule as the data show it: active = GI50 up to about 1.1 µM and inactive = higher.

Tests used:
Experiment in all cases: DTP human tumour cell line panel, 48 h
IGROV-1 = system: IGROV-1
OVCAR-8 = system: OVCAR-8
RXF 393 = system: RXF 393
U-251 = system: U-251
SW-620 = system: SW-620
M14 = system: M14
RPMI-8226 = system: RPMI-8226
MDA-MB-231 = system: MDA-MB-231
MDA-MB-435 = system: MDA-MB-435
HT-29 = system: HT-29
SF-268 = system: SF-268
Hs-578T = system: Hs-578T
LOX IMVI = system: LOX IMVI
786-0 = system: 786-0
SK-MEL-2 = system: SK-MEL-2
HCT-15 = system: HCT-15
SNB-19 = system: SNB-19
OVCAR-4 = system: OVCAR-4
HCC 2998 = system: HCC 2998
NCI-H522 = system: NCI-H522

Row | SMILES | GI50 (IGROV-1) | GI50 (OVCAR-8) | GI50 (RXF 393) | GI50 (U-251) | GI50 (SW-620) | GI50 (M14) | GI50 (RPMI-8226) | GI50 (MDA-MB-231) | GI50 (MDA-MB-435) | GI50 (HT-29) | GI50 (SF-268) | GI50 (Hs-578T) | GI50 (LOX IMVI) | GI50 (786-0) | GI50 (SK-MEL-2) | GI50 (HCT-15) [µM] | GI50 (SNB-19) | GI50 (OVCAR-4) | GI50 (HCC 2998) | GI50 (NCI-H522)
1 | CN(CCCNC(=O)c1cn(C)c2c1Cc1ccccc1-2)CCCNC(=O)c1cn(C)c2c1Cc1ccccc1-2 | 6.24 µM (inactive) | 5.86 µM (inactive) | 16.8 µM (inactive) | 7.43 µM (inactive) | 3.66 µM (inactive) | 3.81 µM (inactive) | 21.3 µM (inactive) | 13.6 µM (inactive) | 2.21 µM (inactive) | 2.32 µM (inactive) | 5.14 µM (inactive) | 5.85 µM (inactive) | 6.82 µM (inactive) | 4.83 µM (inactive) | 16.7 µM (inactive) | 11.2 | 11.4 µM (inactive) | 12.8 µM (inactive) |  | 
2 | CCC(O)CC1OC2(CCC1C)CC1OC(=O)/C=C\C(C)(O)C(O)C(C)C(O)C(OC3CC(OC)C(O)C(C)O3)C(O)C(C)(O)CCC/C=C/C3CC(C)COC3(O)CC(O2)C1C (stereo not given) | 18.3 µM (inactive) | < 0.0111 µM (active) | 26.2 µM (inactive) | < 0.01 µM (active) | 14.8 µM (inactive) | 6.97 µM (inactive) | < 0.01 µM (active) | 12 µM (inactive) | 1.91 µM (inactive) | 12 µM (inactive) | 17.8 µM (inactive) | 12.1 µM (inactive) | 11.8 µM (inactive) | 20.2 µM (inactive) | 4.98 µM (inactive) | 9.62 | 0.0743 µM (active) |  | 15.7 µM (inactive) | 
3 | Cc1cc2nc3c(C#N)c4c(c(-c5ccc(Cl)cc5)n3c2cc1C)CCC4 | 18.4 µM (inactive) |  | 45 µM (inactive) | 28.8 µM (inactive) | 30.4 µM (inactive) | 17.5 µM (inactive) | 26.5 µM (inactive) | 22.2 µM (inactive) | 22.5 µM (inactive) | 21.3 µM (inactive) | 24.3 µM (inactive) | 25.1 µM (inactive) | 30.2 µM (inactive) | 19.4 µM (inactive) | 19 µM (inactive) | 27.9 | 20.8 µM (inactive) | 38.5 µM (inactive) |  | 18.7 µM (inactive)
4 | C[C@]12CCC3=NCCN3C1=CC[C@@H]1[C@@H]2CC[C@@]2(C)[C@H]1CC[C@]2(C)O | 39.1 µM (inactive) | 45.9 µM (inactive) | 23 µM (inactive) | 87.3 µM (inactive) | 85.1 µM (inactive) | 89.1 µM (inactive) | 15 µM (inactive) | > 100 µM (inactive) | 84.9 µM (inactive) | 16.1 µM (inactive) | 76.7 µM (inactive) | 30.5 µM (inactive) | 32.2 µM (inactive) | 14.6 µM (inactive) | 50 µM (inactive) | 53.2 | > 100 µM (inactive) | > 100 µM (inactive) |  | 58.1 µM (inactive)
5 | COc1ccc2c(c1)C(=O)[C@@](Nc1ccc(C=O)cc1)(OC)[C@@](OC)(c1ccc([N+](=O)[O-])cc1)O2 | > 10 µM (inactive) | > 10 µM (inactive) | > 10 µM (inactive) | > 10 µM (inactive) | > 10 µM (inactive) | > 10 µM (inactive) | > 10 µM (inactive) | > 10 µM (inactive) | > 10 µM (inactive) | > 10 µM (inactive) | > 10 µM (inactive) | > 10 µM (inactive) | > 10 µM (inactive) | > 10 µM (inactive) | > 10 µM (inactive) | > 10 | > 10 µM (inactive) | > 10 µM (inactive) | > 10 µM (inactive) | 
6 | Cc1cc2cc3cc(C)c(N)cc3nc2cc1N [ACRIDINE YELLOW] | 0.244 µM (active) | 0.518 µM (active) | 1.15 µM (inactive) | 0.863 µM (active) | 0.321 µM (active) | 3.53 µM (inactive) | 0.217 µM (active) | 0.211 µM (active) | 4.4 µM (inactive) | 0.359 µM (active) | 0.593 µM (active) | 1.75 µM (inactive) | 0.478 µM (active) | 0.416 µM (active) | 3.88 µM (inactive) | 0.597 | 0.716 µM (active) | 0.566 µM (active) |  | 0.271 µM (active)
7 | O=C1N/C(=N/N=C/c2c[nH]c3ccccc23)N/C1=C\c1c[nH]c2ccccc12 | 19.1 µM (inactive) | 15.8 µM (inactive) | 28.6 µM (inactive) | 17.3 µM (inactive) | 18.2 µM (inactive) | 29 µM (inactive) | 12.9 µM (inactive) | 20 µM (inactive) | 24.5 µM (inactive) | 23.1 µM (inactive) | 20.4 µM (inactive) | 18.7 µM (inactive) | 17.4 µM (inactive) | 17.8 µM (inactive) | 20.3 µM (inactive) | 23 | 69.7 µM (inactive) | 26.9 µM (inactive) |  | 11.9 µM (inactive)
